Measured values published in patent EP0603240B1, “SAFENING HERBICIDAL PYRAZOLYLSULFONYLUREAS” (priority 1991, dated 1993).

Assays:
Assay type in all cases: in vivo
corn [1] = test: Example 6, Procedure II: Herbicide No. 1 + alachlor (No. 7) with antidotes
Protocol: (§1) Containers were filled and compacted with a fumigated silt loam top soil to a depth of about 1.3 cm from the top of the container. A first container was designated as an untreated control, a second container was designated as a herbicide control, and a third container was designated as a herbicide + antidote test container. Each of the containers was seeded with a crop species. A measured amount of herbicide dispersed or dissolved in acetone was applied to a measured quantity of soil. To this same quantity of soil treated with herbicide, there was added a measured amount of antidote dispersed or dissolved in acetone. The quantity of soil treated with the herbicide and antidote was thoroughly mixed to incorporate the herbicide and antidote in the soil uniformly. The seed bed in the third container of soil was covered with the soil treated with the herbicide and antidote and the container was leveled. For each test series, the seed beds of the first and second containers were likewise covered by soil layers. the cover layer of the first container was not treated with herbicide or antidote.
(§2) The containers were then placed on a bench in a greenhouse and sub-irrigated as required for the duration of the test. […] Plant response is measured in terms of percent injury. Antidote efficacy is indicated as the difference in plant injury by the herbicide(s) without the antidote and with the antidote.
(§3) This procedure is the same as Procedure I, but modified in the manner that after incorporation of the chemicals (herbicide and antidote) the containers with the covered seedbed were treated with an initial overhead irrigation equivalent to 0.6 cm rainfall, then subsequently sub-irrigated as required on greenhouse benches.
This example was designed to investigate the antidotal efficacy of a plurality of antidotal compounds against a composition comprising Herbicide No. 1 in combination with Herbicide No. 7 (alachlor). The antidotal compounds used herein were Nos. 1, 2, 7, 13 and 15.
In this example, Procedure II described above was followed. The data from the tests in this example is shown in Table 6 and represents averages of duplicate replications.

corn [2] = test: Example 3, Procedure I: antidotes against Herbicide No. 1; details: Herbicide No. 1, Table 3
Protocol: as §1, §2
This example details the results of tests with Antidote Nos. 12, 15 and 16 to safen Herbicide No. 1 over application rates ranging from 4.48 kg/ha down to 0.56 kg/ha, in corn in the presence of barnyardgrass. Procedure I described above was used in these tests.

corn [3] = test: Example 13, Procedure II: Herbicide No. 1 + acetochlor (No. 6) with dichloroacetamide antidotes
Protocol: as §1, §2, §3
In this example a plurality of dichloroacetamide antidotes were tested for their safening efficacy against a herbicidal composition comprising Herbicide No. 1 and a co-herbicide, acetochlor (Herbicide No. 6) in corn in the presence of velvetleaf. The procedure used in this example was Procedure II above.

corn [4] = test: Example 12, Procedure II: Herbicide No. 1 + acetochlor (No. 6) with thirteen antidotes
In short: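 Herbicide and antidote in acetone were mixed into silt loam used to cover the corn seed bed, alongside untreated and herbicide-only controls. After incorporation, an overhead irrigation equal to 0.6 cm rainfall was given, then sub-irrigation in a greenhouse. Injury was scored as percent; safening is the injury difference without versus with antidote.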

[5] = system: Giant foxtail (Setaria fabergi); test: Example 24, Procedure II: Herbicide No. 1 + co-herbicides Nos. 4, 6, 7, 12 with Antidote Nos. 15 and 17-21
Protocol: as §1, §2, §3
(§4) In other greenhouse tests, using Procedure II described above, the safening efficacy of Antidote Nos. 15 and 17-21 was evaluated against Herbicide No. 1 in corn in the presence of Giant foxtail (Setaria fabergi) and Velvetleaf (Abutilon theophrasti) as representative annual monocotyledonous and dicotyledonous weeds, respectively.
(§5) Test results are shown in Tables 23A and 23B wherein the indicated plant inhibition represents the average of duplicate replications, with observations being made thirteen (13) days after application of the chemicals. Giant foxtail and Velvetleaf are represented by the symbols "GFT" and "VL", respectively. The data in Table 23A show the test results using the antidotes at 2.24 kg/ha, whereas in Table 23B, the antidotal rate was reduced to 0.56 kg/ha.
(§6) The tests described in Example 23 were duplicated, but in this example a variety of co-herbicides were included to ascertain the efficacy of the antidotes against combinations of Herbicide No. 1 and Herbicides Nos. 4, 6, 7 and 12 as co-herbicides. Test results are shown in Table 24, wherein the antidote application rate was 2.24 kg/ha.

corn [6] = test: as above
Protocol: as §1, §2, §3, §4, §5, §6

[7] = system: velvetleaf (Abutilon theophrasti); test: as above
Protocol: as §1, §2, §3, §4, §5, §6

[8] = Herbicide No.1 0.14 + No.7 4.48 kg/ha + antidote 2.24 kg/ha
[9] = Herbicide No.1 0.14 + No.7 4.48 kg/ha + antidote 8.96 kg/ha
[10] = Herbicide No.1 0.56 + No.7 4.48 kg/ha + antidote 2.24 kg/ha
[11] = Herbicide No.1 0.56 + No.7 4.48 kg/ha + antidote 8.96 kg/ha
[12] = Herbicide No.1 0.14 kg/ha + Herbicide No.6 2.24 kg/ha, antidote rate 2.24 kg/ha
[13] = Herbicide No.1 0.14 kg/ha + Herbicide No.6 2.24 kg/ha, antidote rate 8.96 kg/ha
[14] = Herbicide No.1 0.56 kg/ha + Herbicide No.6 2.24 kg/ha, antidote rate 2.24 kg/ha
[15] = Herbicide No.1 0.56 kg/ha + Herbicide No.6 2.24 kg/ha, antidote rate 8.96 kg/ha
[16] = Herb. No. 1 0.07 Kg/ha + Co-Herb. No. 4 1.12 Kg/ha + antidote 2.24 Kg/ha
[17] = Herb. No. 1 0.07 Kg/ha + Co-Herb. No. 6 0.14 Kg/ha + antidote 2.24 Kg/ha
[18] = Herb. No. 1 0.07 Kg/ha + Co-Herb. No. 7 0.28 Kg/ha + antidote 2.24 Kg/ha
[19] = Herb. No. 1 0.07 Kg/ha + Co-Herb. No. 12 0.28 Kg/ha + antidote 2.24 Kg/ha
[20] = Herb. No. 1 0.14 Kg/ha + Co-Herb. No. 4 1.12 Kg/ha + antidote 2.24 Kg/ha
[21] = Herb. No. 1 0.14 Kg/ha + Co-Herb. No. 6 0.14 Kg/ha + antidote 2.24 Kg/ha
[22] = Herb. No. 1 0.14 Kg/ha + Co-Herb. No. 7 0.28 Kg/ha + antidote 2.24 Kg/ha
[23] = Herb. No. 1 0.14 Kg/ha + Co-Herb. No. 12 0.28 Kg/ha + antidote 2.24 Kg/ha
[24] = Herb. No. 1 0.28 Kg/ha + Co-Herb. No. 4 1.12 Kg/ha + antidote 2.24 Kg/ha
[25] = Herb. No. 1 0.28 Kg/ha + Co-Herb. No. 6 0.14 Kg/ha + antidote 2.24 Kg/ha
[26] = Herb. No. 1 0.28 Kg/ha + Co-Herb. No. 7 0.28 Kg/ha + antidote 2.24 Kg/ha
[27] = Herb. No. 1 0.28 Kg/ha + Co-Herb. No. 12 0.28 Kg/ha + antidote 2.24 Kg/ha
[28] = Herb. No. 1 0.56 Kg/ha + Co-Herb. No. 4 1.12 Kg/ha + antidote 2.24 Kg/ha
[29] = Herb. No. 1 0.56 Kg/ha + Co-Herb. No. 6 0.14 Kg/ha + antidote 2.24 Kg/ha
[30] = Herb. No. 1 0.56 Kg/ha + Co-Herb. No. 7 0.28 Kg/ha + antidote 2.24 Kg/ha
[31] = Herb. No. 1 0.56 Kg/ha + Co-Herb. No. 12 0.28 Kg/ha + antidote 2.24 Kg/ha

O=C(C(Cl)Cl)N1CCOC12CCCCC2 [compound 7]
% Injury Corn (corn [1]; [8]): 0%
% Injury Corn (corn [1]; [9]): 10%
% Injury Corn (corn [1]; [10]): 10%
% Injury Corn (corn [1]; [11]): 5%

CC1(C)OC(c2ccco2)CN1C(=O)C(Cl)Cl (stereo not drawn) [Antidote No. 15, Oxazolidine, 3-(dichloroacetyl)-5-(2-furanyl)-2,2-dimethyl]
safening of corn, assessment in words (corn [2]): excellent protection for corn
safening of corn, assessment in words (corn [3]; Herbicide Nos. 1 and 6, Table 13): most active overall

CC1(C(Cl)Cl)OCCO1 [compound 13]
% Injury Corn (corn [1]; [8]): 0%
% Injury Corn (corn [1]; [9]): 0%
% Injury Corn (corn [1]; [10]): 5%
% Injury Corn (corn [1]; [11]): 15%
% Injury Corn (corn [4]; [12]): 10%
% Injury Corn (corn [4]; [13]): 30%
% Injury Corn (corn [4]; [14]): 35%
% Injury Corn (corn [4]; [15]): 40%

CC1COc2ccccc2N1C(=O)C(Cl)Cl (stereo not drawn) [compound 17]
% Inhibition GFT [5, 16]: 55%
% Inhibition GFT [5, 17]: 100%
% Inhibition GFT [5, 18]: 100%
% Inhibition GFT [5, 19]: 99%
% Inhibition GFT [5, 20]: 50%
% Inhibition GFT [5, 21]: 100%
% Inhibition GFT [5, 22]: 100%
% Inhibition GFT [5, 23]: 99%
% Inhibition GFT [5, 24]: 45%
% Inhibition GFT [5, 25]: 98%
% Inhibition GFT [5, 26]: 100%
% Inhibition GFT [5, 27]: 98%
% Inhibition GFT [5, 28]: 70%
% Inhibition GFT [5, 29]: 99%
% Inhibition GFT [5, 30]: 99%
% Inhibition GFT [5, 31]: 100%
% Inhibition Corn (corn [6]; [16]): 0%
% Inhibition Corn (corn [6]; [17]): 5%
% Inhibition Corn (corn [6]; [18]): 0%
% Inhibition Corn (corn [6]; [19]): 5%
% Inhibition Corn (corn [6]; [20]): 0%
% Inhibition Corn (corn [6]; [21]): 0%
% Inhibition Corn (corn [6]; [22]): 0%
% Inhibition Corn (corn [6]; [23]): 5%
% Inhibition Corn (corn [6]; [24]): 5%
% Inhibition Corn (corn [6]; [25]): 15%
% Inhibition Corn (corn [6]; [26]): 5%
% Inhibition Corn (corn [6]; [27]): 5%
% Inhibition Corn (corn [6]; [28]): 20%
% Inhibition Corn (corn [6]; [29]): 15%
% Inhibition Corn (corn [6]; [30]): 15%
% Inhibition Corn (corn [6]; [31]): 20%
% Inhibition VL [7, 16]: 90%
% Inhibition VL [7, 17]: 90%
% Inhibition VL [7, 18]: 85%
% Inhibition VL [7, 19]: 90%
% Inhibition VL [7, 20]: 90%
% Inhibition VL [7, 21]: 90%
% Inhibition VL [7, 22]: 95%
% Inhibition VL [7, 23]: 98%
% Inhibition VL [7, 24]: 90%
% Inhibition VL [7, 25]: 95%
% Inhibition VL [7, 26]: 98%
% Inhibition VL [7, 27]: 98%
% Inhibition VL [7, 28]: 95%
% Inhibition VL [7, 29]: 98%
% Inhibition VL [7, 30]: 98%
% Inhibition VL [7, 31]: 95%

O=C1OC(=O)c2cccc3cccc1c23 [compound 2]
% Injury Corn (corn [1]; [8]): 0%
% Injury Corn (corn [1]; [9]): 15%
% Injury Corn (corn [1]; [10]): 10%
% Injury Corn (corn [1]; [11]): 15%

C=CCN(CC=C)C(=O)C(Cl)Cl [compound 1]
% Injury Corn (corn [1]; [8]): 10%
% Injury Corn (corn [1]; [9]): 0%
% Injury Corn (corn [1]; [10]): 15%
% Injury Corn (corn [1]; [11]): 5%
% Injury Corn (corn [4]; [12]): 10%
% Injury Corn (corn [4]; [13]): 10%
% Injury Corn (corn [4]; [14]): 15%
% Injury Corn (corn [4]; [15]): 15%
% Injury Corn (corn [3]; Herbicide No.1 0.56 kg/ha + Herbicide No.6 4.48 kg/ha, antidote rate 0.56 kg/ha): 5%
% Injury Corn (corn [3]; Herbicide No.1 0.56 kg/ha + Herbicide No.6 4.48 kg/ha, antidote rate 2.24 kg/ha): 10%
% Injury Corn (corn [3]; Herbicide No.6 4.48 kg/ha, no Herbicide No.1, antidote rate 0.56 kg/ha): 20%
% Injury Corn (corn [3]; Herbicide No.6 4.48 kg/ha, no Herbicide No.1, antidote rate 2.24 kg/ha): 10%
